Data published in patent publication US20230059705A1, “NITRIFICATION INHIBITOR FUNGICIDE COMPOSITION AND USE THEREOF” (Verdesian Life Sciences U.S., LLC, priority 2019, published 2023).
Like-named read-outs stand apart in the source and are kept apart here.

How the values were obtained:
N. europaea = experiment: Oxygen (O2) uptake of N. europaea cell suspension; assay type: cell-based, Nitrosomonas europaea; conditions: FIG. 12, cells at 0.5 mg/mL total protein, thiram 4 μM, nitrapyrin and formulations 100 μM
Procedure: 1.5 L of cell culture suspension containing N. europaea bacteria (ATCC #19718) was resuspended into a phosphate buffer (0.1M NaPB, 2 mM Mg SO4, pH of 7.5). The amount of N. europaea protein was quantified using a Biuret assay.
To a buffer solution containing 10 μM of (NH4)2SO4 in a total reaction volume of 5 mL was added 0.25 mg/mL of the N. europaea containing cell suspension. The N. europaea protein content varied (e.g., 0.25 mg/mL, 0.3 mg/mL or 0.5 mg/mL total protein). Measurements of O2 present in the reaction medium were taken immediately after the addition of the cell suspension to the buffer solution for and were taken continuously over a certain time period.
Test compounds and formulations included 4 μM thiram, 100 μM nitrapyrin, 100 μM of formulation 2, 100 μM of formulation 3, 100 μM of formulation 4, 100 μM of formulation 2 plus 4 μM thiram, 100 μM of formulation 3 plus 4 μM thiram; and 100 μM of formulation 4 plus 4 μM, and thiram, untreated N. europaea assay served as the control.
Results are typically plotted as a function of measured oxygen (i.e., the amount of dissolved oxygen) in solution over time to generate a inhibition curve (FIG. 11). Measurements of the area under the inhibition curve can provide a bar chart showing the oxygen consumption of N. europaea of the entire testing period.

Nitrosomonas europaea = experiment: Inhibition of nitrite generation by N. europaea cell suspension (Griess reagent, absorbance 548 nm); assay type: cell-based; conditions: thiram 4 μM, relative to zero inhibitor control, read-out: % control (percent control of nitrification inhibition), observed
Procedure: 1.5 L of cell culture suspension containing Nitrosomonas europaea (N. europaea) bacteria (ATCC #19718) was resuspended into a phosphate buffer (0.1M NaPB, 2 mM Mg SO4, pH of 7.5). The amount of N. europaea protein was quantified using a Biuret assay. A sample of the cell culture suspension containing about 0.3 mg/mL, 0.25 mg/mL, or 0.5 mg/mL of N. europaea protein was incubated with 50 μL of (NH4)2SO4 in a total reaction volume of 5 mL. The test measured inhibition for treatment rates of 4 μM thiram, 100 μM nitrapyrin, 100 μM of formulation 2 (form.2), formulation 3 (form.3), formulation 4 (form.4) and 100 μM of formulation 2 (form.2) plus 4 μM thiram, 100 μM of formulation 3 (form.3) plus 4 μM thiram and 100 μM of formulation 4 (form.4) plus 4 μM thiram; an untreated N. europaea assay served as the control. At time points 0, 30, and 60 minutes post addition of (NH4)2SO4, an aliquot of 500 μL was removed from the reaction mixture and was incubated for 30 minutes with 500 μL of Griess Reagent in the dark followed by measuring the absorbance at 548 nm for the presence or absence of nitrite. The percent of nitrification inhibition was calculated based on the relative percentage of nitrite measurement against the zero inhibitor control measurement (see FIGS. 2-4 showing the percent control of nitrification inhibition). […]

Compound	inhibition of oxygen consumption by N. europaea (N. europaea)	inhibition at 4 µM (Nitrosomonas europaea; 0.5 h, 30 min after (NH4)2SO4, formulation 100 μM)	inhibition at 4 µM (Nitrosomonas europaea; 1 h, 60 min after (NH4)2SO4, formulation 100 μM)	inhibition at 4 µM (N. europaea; Nitrosomonas europaea, read-out: inhibition of oxygen consumption by N. europaea)
Clc1cccc(C(Cl)(Cl)Cl)n1 [nitrapyrin, 2-chloro-6-(trichloromethyl)-pyridine]	did not inhibit	–	–	–
CN(C)C(=S)SSC(=S)N(C)C [Thiram]	–	77.7 ± 1%	77.3 ± 1.2%	20%
